Patent US12715849B2, “Herbicidal tetrazole compounds” (SYNGENTA CROP PROTECTION AG, priority 2020, dated 2026)

What was measured:
Assay in all cases: Glasshouse herbicidal test, pre- and post-emergence (Table B1)
Assay type in all cases: in vivo
[1] = tested on: Amaranthus palmeri (AMAPA); details: 130 g/h, evaluated after 13 days; for percentage damage caused to the plant, POST Application AMAPA: post-emergence; for percentage damage caused to the plant, PRE Application AMAPA: pre-emergence
Procedure: (§1) Seeds of a variety of test species are sown in standard soil in pots (Lolium perenne (LOLPE), Amaranthus retoflexus (AMARE), Amaranthus palmeri (AMAPA), Ablution theophrasti (ABUTH), Setaria faberi (SETFA), Echinochloa crus-galli (ECHCG), Ipomoea hederacea (IPOHE)). After cultivation for one day (pre-emergence) or after 8 days cultivation (post-emergence) under controlled conditions in a glasshouse (at 24/16° C., day/night; 14 hours light; 65% humidity), the plants are sprayed with an aqueous spray solution derived from the formulation of the technical active ingredient in acetone/water (50:50) solution containing 0.5% Tween 20 (polyoxyethelyene sorbitan monolaurate, CAS RN 9005-64-5). Compounds are applied at 130 g/h unless otherwise indicated. The test plants are then grown in a glasshouse under controlled conditions in a glasshouse (at 24/16° C., day/night; 14 hours light; 65% humidity) and watered twice daily. After 13 days for pre and post-emergence, the test is evaluated for the percentage damage caused to the plant. The biological activities are shown in the following table on a five-point scale (5=80-100%; 4=60-79%; 3=40-59%; 2=20-39%; 1=0-19%).

[2] = tested on: Setaria faberi (SETFA); details: 130 g/h, evaluated after 13 days; for percentage damage caused to the plant, POST Application SETFA: post-emergence; for percentage damage caused to the plant, PRE Application SETFA: pre-emergence
Procedure: as §1

[3] = tested on: Echinochloa crus-galli (ECHCG); details: 130 g/h, evaluated after 13 days; for percentage damage caused to the plant, PRE Application ECHCG: pre-emergence; for percentage damage caused to the plant, POST Application ECHCG: post-emergence
Procedure: as §1

[4] = tested on: Ipomoea hederacea (IPOHE); details: 130 g/h, evaluated after 13 days; for percentage damage caused to the plant, POST Application IPOHE: post-emergence; for percentage damage caused to the plant, PRE Application IPOHE: pre-emergence
Procedure: as §1

[5] = tested on: Amaranthus retoflexus (AMARE); details: 130 g/h, evaluated after 13 days; for percentage damage caused to the plant, POST Application AMARE: post-emergence; for percentage damage caused to the plant, PRE Application AMARE: pre-emergence
Procedure: as §1

CCN(c1c(OC(F)(F)F)ccc(C(=O)Nc2nnnn2C)c1Cl)S(=O)(=O)CC [Compound 1.078]
percentage damage caused to the plant, POST Application AMAPA [1]: 5 (5=80-100%) | percentage damage caused to the plant, PRE Application AMAPA [1]: 5 (5=80-100%) | percentage damage caused to the plant, POST Application SETFA [2]: 5 (5=80-100%) | percentage damage caused to the plant, PRE Application SETFA [2]: 5 (5=80-100%) | percentage damage caused to the plant, PRE Application ECHCG [3]: 5 (5=80-100%) | percentage damage caused to the plant, POST Application IPOHE [4]: 4 (4=60-79%) | percentage damage caused to the plant, PRE Application IPOHE [4]: 4 (4=60-79%) | percentage damage caused to the plant, POST Application AMARE [5]: 5 (5=80-100%) | percentage damage caused to the plant, PRE Application AMARE [5]: 5 (5=80-100%)

CCCS(=O)(=O)Nc1c(OC(F)F)ccc(C(=O)Nc2nnnn2C)c1Cl [Compound 1.069]
percentage damage caused to the plant, POST Application AMAPA [1]: 5 (5=80-100%) | percentage damage caused to the plant, PRE Application AMAPA [1]: 5 (5=80-100%) | percentage damage caused to the plant, POST Application SETFA [2]: 5 (5=80-100%) | percentage damage caused to the plant, PRE Application SETFA [2]: 4 (4=60-79%) | percentage damage caused to the plant, POST Application ECHCG [3]: 5 (5=80-100%) | percentage damage caused to the plant, PRE Application ECHCG [3]: 5 (5=80-100%) | percentage damage caused to the plant, POST Application IPOHE [4]: 5 (5=80-100%) | percentage damage caused to the plant, PRE Application IPOHE [4]: 4 (4=60-79%) | percentage damage caused to the plant, POST Application AMARE [5]: 5 (5=80-100%) | percentage damage caused to the plant, PRE Application AMARE [5]: 5 (5=80-100%)

Cn1nnnc1NC(=O)c1ccc(OC(F)(F)F)c(NS(=O)(=O)C2CC2)c1Cl [Compound 1.073]
percentage damage caused to the plant, POST Application AMAPA [1]: 5 (5=80-100%) | percentage damage caused to the plant, PRE Application AMAPA [1]: 5 (5=80-100%) | percentage damage caused to the plant, POST Application SETFA [2]: 5 (5=80-100%) | percentage damage caused to the plant, PRE Application SETFA [2]: 5 (5=80-100%) | percentage damage caused to the plant, POST Application ECHCG [3]: 5 (5=80-100%) | percentage damage caused to the plant, PRE Application ECHCG [3]: 5 (5=80-100%) | percentage damage caused to the plant, POST Application IPOHE [4]: 5 (5=80-100%) | percentage damage caused to the plant, PRE Application IPOHE [4]: 5 (5=80-100%) | percentage damage caused to the plant, POST Application AMARE [5]: 5 (5=80-100%) | percentage damage caused to the plant, PRE Application AMARE [5]: 5 (5=80-100%)

COCCS(=O)(=O)Nc1c(OC(F)(F)F)ccc(C(=O)Nc2nnnn2C)c1Cl [Compound 1.054]
percentage damage caused to the plant, POST Application AMAPA [1]: 5 (5=80-100%) | percentage damage caused to the plant, PRE Application AMAPA [1]: 5 (5=80-100%) | percentage damage caused to the plant, POST Application SETFA [2]: 4 (4=60-79%) | percentage damage caused to the plant, PRE Application SETFA [2]: 1 (1=0-19%) | percentage damage caused to the plant, POST Application ECHCG [3]: 5 (5=80-100%) | percentage damage caused to the plant, PRE Application ECHCG [3]: 1 (1=0-19%) | percentage damage caused to the plant, POST Application IPOHE [4]: 4 (4=60-79%) | percentage damage caused to the plant, PRE Application IPOHE [4]: 3 (3=40-59%) | percentage damage caused to the plant, POST Application AMARE [5]: 5 (5=80-100%) | percentage damage caused to the plant, PRE Application AMARE [5]: 5 (5=80-100%)

CCCS(=O)(=O)Nc1c(OC(F)(F)F)ccc(C(=O)Nc2nnnn2C)c1Cl [Compound 1.072]
percentage damage caused to the plant, POST Application AMAPA [1]: 5 (5=80-100%) | percentage damage caused to the plant, PRE Application AMAPA [1]: 5 (5=80-100%) | percentage damage caused to the plant, POST Application SETFA [2]: 5 (5=80-100%) | percentage damage caused to the plant, PRE Application SETFA [2]: 5 (5=80-100%) | percentage damage caused to the plant, PRE Application ECHCG [3]: 5 (5=80-100%) | percentage damage caused to the plant, POST Application IPOHE [4]: 5 (5=80-100%) | percentage damage caused to the plant, PRE Application IPOHE [4]: 5 (5=80-100%) | percentage damage caused to the plant, POST Application AMARE [5]: 5 (5=80-100%) | percentage damage caused to the plant, PRE Application AMARE [5]: 5 (5=80-100%)

CCS(=O)(=O)N(C)c1c(OC(F)(F)F)ccc(C(=O)Nc2nnnn2C)c1Cl [Compound 1.080]
percentage damage caused to the plant, POST Application AMAPA [1]: 5 (5=80-100%) | percentage damage caused to the plant, PRE Application AMAPA [1]: 5 (5=80-100%) | percentage damage caused to the plant, POST Application SETFA [2]: 5 (5=80-100%) | percentage damage caused to the plant, PRE Application SETFA [2]: 5 (5=80-100%) | percentage damage caused to the plant, POST Application ECHCG [3]: 5 (5=80-100%) | percentage damage caused to the plant, PRE Application ECHCG [3]: 5 (5=80-100%) | percentage damage caused to the plant, POST Application IPOHE [4]: 5 (5=80-100%) | percentage damage caused to the plant, PRE Application IPOHE [4]: 5 (5=80-100%) | percentage damage caused to the plant, POST Application AMARE [5]: 5 (5=80-100%) | percentage damage caused to the plant, PRE Application AMARE [5]: 5 (5=80-100%)
